# From patent US10670605B2, “Cysteine reactive probes and uses thereof” (The Scripps Research Institute, priority 2015, dated 2020)
# Where “and” joins values, the source holds several entries; their conditions need not be identical. Equal values may be shown once.
# Tests used:
# Assay in all cases: Competitive isoTOP-ABPP, cell lysates
# Assay type in all cases: binding
# LRBA C2675 (P50851) = LRBA C2675 (P50851) (Homo sapiens, UniProt P50851); details: for isoTOP-ABPP ratio, P50851_C2675 / R value (DMSO/fragment): 500 μM, invitro, ramos; for isoTOP-ABPP reactivity ratio, P50851_C2675: 500 μm, in-vitro_ramos
# CDK5 C157 (Q00535) = CDK5 C157 (Q00535) (Homo sapiens, UniProt Q00535); details: for isoTOP-ABPP ratio, Q00535_C157 / R value (DMSO/fragment): 500 μM, invitro, ramos; for isoTOP-ABPP reactivity ratio, Q00535_C157: 500 μm; for isoTOP-ABPP ratio (reactivity profile), Q00535_C157: 500 μm in-vitro ramos
# USP16 C205 (Q9Y5T5) = USP16 C205 (Q9Y5T5) (Homo sapiens, UniProt Q9Y5T5); details: for isoTOP-ABPP ratio, Q9Y5T5_C205 / R value (DMSO/fragment): 500 μM; for isoTOP-ABPP reactivity ratio, Q9Y5T5_C205: in-vitro_ramos
# KDM4B C694 (O94953) = molecular target: T1, KDM4B C694 (O94953) (Homo sapiens, UniProt O94953); details: for isoTOP-ABPP ratio, O94953_C694 / R value (DMSO/fragment): 500 μM; for isoTOP-ABPP reactivity ratio, O94953_C694: 500 μm, in-vitro_ramos
# T1 sequence (O94953 1-1096): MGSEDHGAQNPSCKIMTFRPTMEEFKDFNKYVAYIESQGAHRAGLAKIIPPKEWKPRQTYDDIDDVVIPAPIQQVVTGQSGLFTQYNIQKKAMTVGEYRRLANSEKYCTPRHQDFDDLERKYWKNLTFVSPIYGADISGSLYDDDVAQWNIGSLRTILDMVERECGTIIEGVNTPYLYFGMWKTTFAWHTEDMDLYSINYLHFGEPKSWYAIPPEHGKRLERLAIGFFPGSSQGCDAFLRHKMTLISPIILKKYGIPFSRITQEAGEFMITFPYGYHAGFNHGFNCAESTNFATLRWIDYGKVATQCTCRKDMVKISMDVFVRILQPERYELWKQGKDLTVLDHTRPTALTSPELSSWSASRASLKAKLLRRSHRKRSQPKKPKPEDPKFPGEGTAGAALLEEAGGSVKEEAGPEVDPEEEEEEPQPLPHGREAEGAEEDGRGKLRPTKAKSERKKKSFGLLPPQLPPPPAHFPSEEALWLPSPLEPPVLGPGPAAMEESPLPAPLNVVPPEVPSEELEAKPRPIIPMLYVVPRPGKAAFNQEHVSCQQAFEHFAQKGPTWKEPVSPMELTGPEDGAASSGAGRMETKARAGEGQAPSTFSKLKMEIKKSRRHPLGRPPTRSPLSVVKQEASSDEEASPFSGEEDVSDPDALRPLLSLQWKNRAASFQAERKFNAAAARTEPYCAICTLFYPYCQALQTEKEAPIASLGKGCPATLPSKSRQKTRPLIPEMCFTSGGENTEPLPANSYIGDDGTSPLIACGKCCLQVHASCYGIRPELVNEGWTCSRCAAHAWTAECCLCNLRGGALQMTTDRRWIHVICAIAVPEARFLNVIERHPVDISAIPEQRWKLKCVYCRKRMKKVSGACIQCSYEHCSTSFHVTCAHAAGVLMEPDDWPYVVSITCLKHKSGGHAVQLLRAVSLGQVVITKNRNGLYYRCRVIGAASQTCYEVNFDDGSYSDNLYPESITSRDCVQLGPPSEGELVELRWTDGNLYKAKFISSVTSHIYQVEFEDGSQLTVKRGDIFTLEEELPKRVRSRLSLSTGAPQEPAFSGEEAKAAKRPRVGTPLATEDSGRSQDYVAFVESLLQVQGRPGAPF
# RRAGC C358 (Q9HB90) = RRAGC C358 (Q9HB90) (Homo sapiens, UniProt Q9HB90); details: for R value (DMSO/fragment) / isoTOP-ABPP ratio, Q9HB90_C358: 500 μM; for isoTOP-ABPP ratio, Q9HB90_C358: 231
# Chain of RRAGC C358 (Q9HB90) (Q9HB90 2-399 limits assumed): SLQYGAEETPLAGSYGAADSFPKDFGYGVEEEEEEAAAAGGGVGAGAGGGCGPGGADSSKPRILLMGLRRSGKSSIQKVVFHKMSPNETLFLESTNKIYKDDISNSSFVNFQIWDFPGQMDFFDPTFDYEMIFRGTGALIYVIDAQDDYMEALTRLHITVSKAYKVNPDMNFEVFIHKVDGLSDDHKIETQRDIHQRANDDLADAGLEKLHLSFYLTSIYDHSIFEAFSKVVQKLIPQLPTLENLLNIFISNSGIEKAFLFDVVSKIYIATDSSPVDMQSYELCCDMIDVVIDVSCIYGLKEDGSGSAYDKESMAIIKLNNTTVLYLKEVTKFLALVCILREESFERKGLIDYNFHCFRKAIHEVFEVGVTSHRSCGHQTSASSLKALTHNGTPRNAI
# Chain of RRAGC C358 (Q9HB90) (Q7L523 whole entry partner, the tested form may be a part): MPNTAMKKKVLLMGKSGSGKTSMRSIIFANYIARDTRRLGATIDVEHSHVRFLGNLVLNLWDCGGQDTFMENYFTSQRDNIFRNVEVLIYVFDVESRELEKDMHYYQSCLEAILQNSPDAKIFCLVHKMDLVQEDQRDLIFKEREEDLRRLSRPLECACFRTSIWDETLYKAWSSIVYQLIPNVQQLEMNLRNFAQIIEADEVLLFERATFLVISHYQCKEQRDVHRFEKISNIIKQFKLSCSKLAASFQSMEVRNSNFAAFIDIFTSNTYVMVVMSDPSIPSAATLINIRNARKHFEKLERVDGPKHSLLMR
# Chain of CDK5 C157 (Q00535) (Q00535 whole entry, the tested form may be a part): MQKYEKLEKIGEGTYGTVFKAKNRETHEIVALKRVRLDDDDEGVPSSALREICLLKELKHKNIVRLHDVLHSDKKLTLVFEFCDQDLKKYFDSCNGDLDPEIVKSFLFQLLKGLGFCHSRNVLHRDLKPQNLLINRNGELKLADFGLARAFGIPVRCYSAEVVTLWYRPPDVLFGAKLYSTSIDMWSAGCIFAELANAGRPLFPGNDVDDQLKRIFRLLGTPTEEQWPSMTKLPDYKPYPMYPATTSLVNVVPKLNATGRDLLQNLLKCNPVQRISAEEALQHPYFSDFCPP
# Chain of USP16 C205 (Q9Y5T5) (Q9Y5T5 whole entry, the tested form may be a part): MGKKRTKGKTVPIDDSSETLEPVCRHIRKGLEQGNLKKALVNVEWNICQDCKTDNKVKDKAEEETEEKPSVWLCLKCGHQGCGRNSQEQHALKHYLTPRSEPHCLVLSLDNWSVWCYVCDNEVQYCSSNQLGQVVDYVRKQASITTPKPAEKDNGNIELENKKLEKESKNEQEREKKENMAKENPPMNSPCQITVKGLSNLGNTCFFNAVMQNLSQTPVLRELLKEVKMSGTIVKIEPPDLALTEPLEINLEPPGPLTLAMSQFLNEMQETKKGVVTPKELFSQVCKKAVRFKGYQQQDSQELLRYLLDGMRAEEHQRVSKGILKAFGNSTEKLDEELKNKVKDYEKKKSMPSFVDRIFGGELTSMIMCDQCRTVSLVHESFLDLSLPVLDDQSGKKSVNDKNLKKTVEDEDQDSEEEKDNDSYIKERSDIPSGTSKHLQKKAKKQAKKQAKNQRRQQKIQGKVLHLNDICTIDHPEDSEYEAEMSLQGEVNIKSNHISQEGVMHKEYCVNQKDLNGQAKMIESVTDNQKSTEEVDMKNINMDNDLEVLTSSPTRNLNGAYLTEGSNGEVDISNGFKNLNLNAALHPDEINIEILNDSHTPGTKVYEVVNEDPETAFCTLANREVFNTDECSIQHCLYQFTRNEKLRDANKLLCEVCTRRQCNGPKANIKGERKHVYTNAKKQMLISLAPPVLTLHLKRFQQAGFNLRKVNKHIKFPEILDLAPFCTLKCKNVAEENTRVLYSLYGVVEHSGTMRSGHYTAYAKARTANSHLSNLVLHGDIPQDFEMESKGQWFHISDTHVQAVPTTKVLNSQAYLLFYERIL
# Chain of LRBA C2675 (P50851) (P50851 whole entry, the tested form may be a part): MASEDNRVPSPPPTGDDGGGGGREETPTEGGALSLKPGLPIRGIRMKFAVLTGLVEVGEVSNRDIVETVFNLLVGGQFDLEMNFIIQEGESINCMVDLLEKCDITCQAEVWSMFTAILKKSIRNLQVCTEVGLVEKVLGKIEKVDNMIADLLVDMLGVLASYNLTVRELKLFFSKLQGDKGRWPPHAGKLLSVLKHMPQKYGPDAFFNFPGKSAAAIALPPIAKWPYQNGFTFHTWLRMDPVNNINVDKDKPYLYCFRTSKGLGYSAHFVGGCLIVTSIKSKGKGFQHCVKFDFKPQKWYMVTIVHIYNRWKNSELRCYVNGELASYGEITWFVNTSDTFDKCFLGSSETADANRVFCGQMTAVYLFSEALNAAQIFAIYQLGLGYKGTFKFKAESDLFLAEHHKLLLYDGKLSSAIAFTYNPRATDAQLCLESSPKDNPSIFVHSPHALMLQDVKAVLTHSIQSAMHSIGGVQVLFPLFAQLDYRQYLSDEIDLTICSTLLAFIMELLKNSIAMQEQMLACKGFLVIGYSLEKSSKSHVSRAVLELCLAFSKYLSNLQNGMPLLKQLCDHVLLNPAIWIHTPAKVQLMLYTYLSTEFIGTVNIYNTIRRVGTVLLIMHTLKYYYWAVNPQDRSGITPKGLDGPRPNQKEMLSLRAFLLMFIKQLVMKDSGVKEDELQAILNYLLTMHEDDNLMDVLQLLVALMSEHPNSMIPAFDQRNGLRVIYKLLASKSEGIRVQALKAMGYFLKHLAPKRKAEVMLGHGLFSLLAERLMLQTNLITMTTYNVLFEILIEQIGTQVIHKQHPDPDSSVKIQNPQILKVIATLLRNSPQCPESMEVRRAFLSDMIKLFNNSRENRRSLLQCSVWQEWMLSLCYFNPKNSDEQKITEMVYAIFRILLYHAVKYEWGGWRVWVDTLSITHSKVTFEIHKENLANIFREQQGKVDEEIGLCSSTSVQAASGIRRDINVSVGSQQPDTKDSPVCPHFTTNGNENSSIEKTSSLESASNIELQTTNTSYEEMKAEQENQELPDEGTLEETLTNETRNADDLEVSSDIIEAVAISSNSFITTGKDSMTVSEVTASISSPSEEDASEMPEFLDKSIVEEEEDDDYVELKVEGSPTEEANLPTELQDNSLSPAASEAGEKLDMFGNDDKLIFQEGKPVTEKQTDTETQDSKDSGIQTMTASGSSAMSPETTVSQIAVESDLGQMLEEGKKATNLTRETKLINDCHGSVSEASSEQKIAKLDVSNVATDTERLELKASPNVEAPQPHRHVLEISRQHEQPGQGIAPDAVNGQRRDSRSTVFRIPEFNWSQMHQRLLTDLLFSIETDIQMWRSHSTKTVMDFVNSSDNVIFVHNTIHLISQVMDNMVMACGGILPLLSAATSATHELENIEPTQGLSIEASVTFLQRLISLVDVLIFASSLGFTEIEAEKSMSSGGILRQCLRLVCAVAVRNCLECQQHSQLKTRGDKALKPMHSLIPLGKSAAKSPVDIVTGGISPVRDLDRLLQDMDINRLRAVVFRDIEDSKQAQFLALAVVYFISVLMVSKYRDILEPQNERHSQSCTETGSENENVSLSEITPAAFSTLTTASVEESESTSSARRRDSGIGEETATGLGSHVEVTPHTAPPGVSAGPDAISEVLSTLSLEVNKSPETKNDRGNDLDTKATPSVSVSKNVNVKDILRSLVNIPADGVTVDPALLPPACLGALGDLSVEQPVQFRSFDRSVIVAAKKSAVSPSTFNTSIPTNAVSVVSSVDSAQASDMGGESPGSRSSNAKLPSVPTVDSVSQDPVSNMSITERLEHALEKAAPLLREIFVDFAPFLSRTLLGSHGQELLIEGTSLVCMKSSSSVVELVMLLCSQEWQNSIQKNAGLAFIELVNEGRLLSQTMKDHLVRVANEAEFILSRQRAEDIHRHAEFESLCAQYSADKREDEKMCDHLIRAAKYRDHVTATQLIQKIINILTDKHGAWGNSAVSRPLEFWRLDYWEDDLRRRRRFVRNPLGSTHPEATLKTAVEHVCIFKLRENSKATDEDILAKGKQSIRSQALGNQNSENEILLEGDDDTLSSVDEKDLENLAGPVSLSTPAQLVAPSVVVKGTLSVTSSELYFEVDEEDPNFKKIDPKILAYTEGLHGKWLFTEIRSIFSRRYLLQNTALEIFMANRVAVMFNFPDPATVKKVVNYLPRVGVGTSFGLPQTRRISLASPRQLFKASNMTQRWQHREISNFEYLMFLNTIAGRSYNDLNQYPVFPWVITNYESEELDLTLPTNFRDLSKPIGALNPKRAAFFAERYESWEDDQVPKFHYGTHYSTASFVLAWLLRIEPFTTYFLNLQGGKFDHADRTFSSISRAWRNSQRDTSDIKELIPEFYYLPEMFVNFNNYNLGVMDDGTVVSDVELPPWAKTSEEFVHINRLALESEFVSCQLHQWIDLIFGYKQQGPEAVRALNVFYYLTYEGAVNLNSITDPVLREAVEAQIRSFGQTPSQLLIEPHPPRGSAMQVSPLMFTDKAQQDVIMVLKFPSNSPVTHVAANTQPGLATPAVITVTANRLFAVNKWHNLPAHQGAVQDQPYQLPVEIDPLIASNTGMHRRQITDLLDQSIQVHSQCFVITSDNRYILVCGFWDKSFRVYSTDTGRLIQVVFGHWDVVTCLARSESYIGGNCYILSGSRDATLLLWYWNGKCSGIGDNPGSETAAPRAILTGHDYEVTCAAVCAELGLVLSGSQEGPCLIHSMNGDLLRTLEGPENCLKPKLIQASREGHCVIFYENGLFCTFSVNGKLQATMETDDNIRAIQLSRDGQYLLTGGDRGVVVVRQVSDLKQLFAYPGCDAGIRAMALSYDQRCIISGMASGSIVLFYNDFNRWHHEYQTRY
smiles,measurement,setting,value
Cn1cc(S(=O)(=O)N2CCOCC2)cc1C(=O)NC(=O)CCl [compound 11],"isoTOP-ABPP ratio, P50851_C2675",LRBA C2675 (P50851),1.3
same,"isoTOP-ABPP ratio, Q00535_C157",CDK5 C157 (Q00535),1.3
same,"isoTOP-ABPP ratio, Q9Y5T5_C205","USP16 C205 (Q9Y5T5); invitro, 231",20.0
same,"isoTOP-ABPP ratio, O94953_C694","KDM4B C694 (O94953); invitro, ramos",1.9
C=CC(=O)Nc1cc(F)c(N2CCN(C(=O)OC(C)(C)C)CC2)c(F)c1 [compound 38],"isoTOP-ABPP reactivity ratio, Q9HB90_C358","RRAGC C358 (Q9HB90); 500 μm, in-vitro_ramos_231",1.1
same,"isoTOP-ABPP reactivity ratio, Q00535_C157",CDK5 C157 (Q00535); in-vitro_ramos_231,0.9
same,"isoTOP-ABPP reactivity ratio, Q9Y5T5_C205",USP16 C205 (Q9Y5T5); 500 μm,1.9
same,"isoTOP-ABPP reactivity ratio, O94953_C694",KDM4B C694 (O94953),2.4
O=C(CCl)Nc1cc(C(F)(F)F)cc(C(F)(F)F)c1 [compound 3],R value (DMSO/fragment),"RRAGC C358 (Q9HB90); in vitro, MDA-MB-231",1.2
same,R value (DMSO/fragment),LRBA C2675 (P50851),5.1
same,R value (DMSO/fragment),CDK5 C157 (Q00535),20.0
same,R value (DMSO/fragment),"USP16 C205 (Q9Y5T5); invitro, ramos",8.8
same,R value (DMSO/fragment),"KDM4B C694 (O94953); in vitro, MDA-MB-231",20.0
same,R value (DMSO/fragment),"KDM4B C694 (O94953); invitro, ramos",7.4
C=CC(=O)N(c1ccccc1)c1ccc(Br)cc1 [compound 5],"isoTOP-ABPP ratio, P50851_C2675",LRBA C2675 (P50851),20.0
same,"isoTOP-ABPP ratio, Q00535_C157",CDK5 C157 (Q00535),20.0
same,"isoTOP-ABPP ratio, Q9Y5T5_C205","USP16 C205 (Q9Y5T5); invitro, ramos",1.1
C=CC(=O)N(c1ccccc1)C1CCCCC1 [compound 46],"isoTOP-ABPP reactivity profile ratio, Q9HB90_C358","RRAGC C358 (Q9HB90); 500 μm, in-vitro_ramos_231",1.1
same,"isoTOP-ABPP reactivity profile ratio, Q9Y5T5_C205","USP16 C205 (Q9Y5T5); 500 μm, in-vitro_ramos_231",1.0
C=CC(=O)N(Cc1cccnc1)c1ccc(Oc2ccccc2)c(C(F)(F)F)c1 [compound 15],"isoTOP-ABPP ratio, Q9HB90_C358",RRAGC C358 (Q9HB90); invitro,1.1
same,"isoTOP-ABPP ratio (reactivity profile), P50851_C2675",LRBA C2675 (P50851); 500 μm in-vitro ramos,1.6
same,"isoTOP-ABPP ratio (reactivity profile), O94953_C694",KDM4B C694 (O94953); 500 μm in-vitro ramos,1.1
COc1ccc2c(c1)CCCN2C(=O)CCl [compound 2],R value (DMSO/fragment),"RRAGC C358 (Q9HB90); in vitro, MDA-MB-231",20.0
same,R value (DMSO/fragment),"RRAGC C358 (Q9HB90); invitro, ramos",20.0
same,R value (DMSO/fragment),LRBA C2675 (P50851),3.0
same,R value (DMSO/fragment),CDK5 C157 (Q00535),3.2
same,R value (DMSO/fragment),"USP16 C205 (Q9Y5T5); in vitro, MDA-MB-231",20.0
same,R value (DMSO/fragment),"KDM4B C694 (O94953); in vitro, MDA-MB-231",20.0
same,R value (DMSO/fragment),"KDM4B C694 (O94953); invitro, ramos",5.1
CCN(CC)c1ccc(S(N)(=O)=O)cc1NC(=O)CCl [compound 30],"isoTOP-ABPP ratio (reactivity profile), Q9HB90_C358",RRAGC C358 (Q9HB90); 500 μm in-vitro ramos,1.0
same,"isoTOP-ABPP ratio (reactivity profile), P50851_C2675",LRBA C2675 (P50851); 500 μm in-vitro ramos,0.9
CNS(=O)(=O)C=Cc1ccc2c(ccn2Cc2ccccc2)c1 [compound 6],"isoTOP-ABPP ratio, Q9HB90_C358",RRAGC C358 (Q9HB90); invitro,1.2
same,"isoTOP-ABPP ratio, O94953_C694","KDM4B C694 (O94953); invitro, 231",1.1
C=CC(=O)N1CCC(c2noc3ccc(F)cc23)CC1 [compound 37],"isoTOP-ABPP reactivity ratio, P50851_C2675",LRBA C2675 (P50851),1.0
same,"isoTOP-ABPP reactivity ratio, O94953_C694",KDM4B C694 (O94953),1.1
CC(Cl)C(=O)Nc1cc(C(F)(F)F)cc(C(F)(F)F)c1 (stereo not drawn) [compound 25],"isoTOP-ABPP ratio (reactivity profile), Q9HB90_C358",RRAGC C358 (Q9HB90); 500 μm in-vitro ramos_231,0.9
N#C/C(=C\c1cc(C(F)(F)F)cc(C(F)(F)F)c1)C(N)=O [compound 23],"isoTOP-ABPP ratio (reactivity profile), P50851_C2675",LRBA C2675 (P50851); 500 μm in-vitro ramos,2.6
same,"isoTOP-ABPP ratio (reactivity profile), Q00535_C157",CDK5 C157 (Q00535),2.8
same,"isoTOP-ABPP ratio (reactivity profile), Q9Y5T5_C205",USP16 C205 (Q9Y5T5); 500 μm in-vitro ramos,1.2
same,"isoTOP-ABPP ratio (reactivity profile), O94953_C694",KDM4B C694 (O94953); 500 μm in-vitro ramos,3.2
CC(C)CCOCCNC(=O)CCl [compound 27],"isoTOP-ABPP ratio (reactivity profile), Q9HB90_C358",RRAGC C358 (Q9HB90); 500 μm in-vitro ramos_231,0.3
same,"isoTOP-ABPP ratio (reactivity profile), Q00535_C157",CDK5 C157 (Q00535),1.0
same,"isoTOP-ABPP ratio (reactivity profile), Q9Y5T5_C205",USP16 C205 (Q9Y5T5); 500 μm in-vitro ramos,0.9
same,"isoTOP-ABPP ratio (reactivity profile), Q9Y5T5_C205",USP16 C205 (Q9Y5T5); 500 μm in-vitro ramos_231,1.6
same,"isoTOP-ABPP ratio (reactivity profile), O94953_C694",KDM4B C694 (O94953); 500 μm in-vitro ramos_231,1.4 and 1.0
C=CC(=O)Nc1cc(C)c(Br)cc1C [compound 40],"isoTOP-ABPP reactivity ratio, Q9Y5T5_C205",USP16 C205 (Q9Y5T5); 500 μm,0.9
O=C(CCl)Nc1ccccc1C1CCCCCC1 [compound 35],"isoTOP-ABPP reactivity ratio, P50851_C2675",LRBA C2675 (P50851),1.0
same,"isoTOP-ABPP reactivity ratio, O94953_C694",KDM4B C694 (O94953),1.1
O=C(CCl)N1CCN(S(=O)(=O)c2ccccc2F)CC1 [compound 10],"isoTOP-ABPP ratio, P50851_C2675",LRBA C2675 (P50851),1.3
same,"isoTOP-ABPP ratio, O94953_C694","KDM4B C694 (O94953); invitro, ramos",1.4
O=C(CCl)N1CCN(CC(=O)N2CCOCC2)CC1 [compound 29],"isoTOP-ABPP ratio (reactivity profile), P50851_C2675",LRBA C2675 (P50851); 500 μm in-vitro ramos_231,1.1
same,"isoTOP-ABPP ratio (reactivity profile), O94953_C694",KDM4B C694 (O94953); 500 μm in-vitro ramos_231,1.2
C=CC(=O)N(Cc1cccnc1)c1cc(C(F)(F)F)cc(C(F)(F)F)c1 [compound 31],"isoTOP-ABPP reactivity ratio, Q9HB90_C358","RRAGC C358 (Q9HB90); 500 μm, in-vitro_ramos_231",2.3
same,"isoTOP-ABPP reactivity ratio, Q00535_C157",CDK5 C157 (Q00535); in-vitro_ramos,1.1
